In test [1] the target is muscarinic receptors (rat cerebral cortex). The test is described as follows: Radio ligand binding: displacement of the muscarinic agonist 3H-OXO-M (3H-Oxotremorine-M). Also noted: species or system Hooded Lister rats. The note with it: 2 nM 3H-OXO-M, 2 mM magnesium chloride, 37° C., 30 min.
The target is the same in test [2]. The format is binding, Hooded Lister rats. The following applies: 0.27 nM 3H-QNB, 37° C., 30 min.

Each structure is given as a SMILES string. Structures can show the parent of a compound that is named as a salt. Where two headings read alike, the source gives them in different places.

As to `COC[C@@H]1C[C@H]2CCCN(C2)C1` (relative stereo) [E9, (±) exo-3-Methoxymethyl-1-azabicyclo[3.3.1]nonane oxalate salt], the IC50 in test [1] turned out to be 1.3 µM; in test [2], 38 µM.

Turning to `CNC(=O)O[C@H]1CN2CCC[C@H]1C2` (relative stereo) [E20, (±) exo-1-Azabicyclo[3.2.1]oct-6-yl-N-methylcarbamate oxalate salt], the values for the IC50 in test [1] and in test [2] were 1.9 µM and 42 µM, respectively.

For `COC(=O)[C@H]1CN2CC[C@H]1C2` (relative stereo) [E16, (±) exo-Methyl 1-azabicyclo[2.2.1]hept-3-yl carboxylate oxalate salt], the IC50 turned out to be 0.19 µM in test [1] and 60 µM in test [2].

With `COC(=O)[C@@H]1C[C@H]2CCCCN(C2)C1` (relative stereo) [E5, (±) exo-Methyl 1-azabicyclo[4.3.1]dec-8-yl carboxylate oxalate], the IC50 was 0.153 µM in test [1] and 3.2 µM in test [2].

For `COC(=O)[C@H]1CN2CCC[C@H]1C2` (relative stereo) [E7, (±) exo-Methyl 1-azabicyclo[3.2.1]oct-6-yl carboxylate hydrochloride], the IC50 in test [1] turned out to be 0.51 µM; in test [2], 65 µM.

For the compound `COC(=O)[C@@H]1C[C@H]2CCCN(C2)C1` (relative stereo) [E4, (±) exo-Methyl 1-azabicyclo[3.3.1]non-3-yl carboxylate oxalate], the IC50 is 0.081 µM in test [1] and 3.9 µM in test [2].

As for `CCO[C@@H]1C[C@H]2CCCN(C2)C1` (relative stereo) [E2, (±) exo-3-Ethoxy-1-azabicyclo[3.3.1]nonane oxalate], the IC50 in test [1] stood at 0.21 µM; in test [2] it was 6.5 µM.

Turning to `CCO[C@H]1CN2CC[C@H]1C2` (relative stereo) [E13, (±) exo-3-Ethoxy-1-azabicyclo[2.2.1]heptane oxalate salt], the IC50 in test [1] is 0.51 µM; in test [2], 54 µM.

Consider `CC(=O)O[C@@H]1C[C@H]2CCN(C2)C1` (relative stereo) [E14, (±) exo-1-Azabicyclo[3.2.1]oct-3-yl acetate hydrochloride salt], for which the values for the IC50 in test [1] and in test [2] were 0.038 µM and 14 µM, respectively.

Consider `CO[C@@H]1C[C@H]2CCCN(C2)C1` (relative stereo) [E22, (±) exo-3-Methoxy-1-azabicyclo[3.3.1]nonane oxalate salt], for which the figures for the IC50 in test [1] and in test [2] were 5 µM and 170 µM, respectively.

`CCC(=O)O[C@H]1CN2CCC[C@H]1C2` (relative stereo) [E17, (±) exo-1-Azabicyclo[3.2.1]oct-6-yl propionate hydrochloride]: the IC50 in test [1] turned out to be 0.41 µM; in test [2] it was 7.3 µM.

For `CC(=O)O[C@@H]1C[C@H]2CCCN(C2)C1` (relative stereo) [E1, (±) exo-1-Azabicyclo[3.3.1]non-3-yl acetate hydrochloride], the IC50 turned out to be 0.081 µM in test [1] and 3.9 µM in test [2].

In the case of `CCO[C@H]1CN2CCC[C@H]1C2` (relative stereo) [E19, (±) exo-6-Ethoxy-1-azabicycl9[3.2.1]octane hydrochloride], the figures for the IC50 in test [1] and in test [2] were 0.46 µM and 64 µM, respectively.

`COC(=O)[C@@H]1C[C@H]2CCN(C2)C1` (relative stereo) [E15, (±) exo-Methyl-1-azabicyclo[3.2.1]oct-3-yl carboxylate hydrochloride]: the values for the IC50 in test [1] and in test [2] were 0.08 µM and 11 µM, respectively.

On to `NC(=O)O[C@@H]1C[C@H]2CCCN(C2)C1` (relative stereo) [E3, (±) exo-1-Azabicyclo[3.3.1]non-3-yl carbamate hydrochloride], for which the IC50 in test [1] stood at 0.103 µM; in test [2] it was 36 µM.

For the compound `CCCO[C@H]1CN2CCC[C@H]1C2` (relative stereo) [E18, (±) exo-6-n-Propoxy-1-azabicyclo[3.2.1]octane hydrochloride], the IC50 was 0.63 µM in test [1] and 15.5 µM in test [2].

`CCC(=O)O[C@@H]1C[C@H]2CCCN(C2)C1` (relative stereo) [E21, (±) exo-1-Azabicyclo[3.3.1]non-3-yl propionate hydrochloride salt]: the IC50 was 0.367 µM in test [1] and 1 µM in test [2].

Turning to `CNC(=O)O[C@@H]1C[C@H]2CCCN(C2)C1` (relative stereo) [E11, (±) exo-1-Azabicyclo[3.3.1]non-3-yl-N-methylcarbamate hydrochloride salt], the IC50 in test [1] is 0.46 µM; in test [2], 5.2 µM.

`C#CCOC(=O)[C@@H]1C[C@H]2CCCN(C2)C1` (relative stereo) [E10, (±) exo-Propargyl 1-azabicyclo[3.3.1]non-3-yl-carboxylate oxylate salt]: the IC50 in test [1] came to 0.04 µM; in test [2], 0.51 µM.

In the case of `CCOC(=O)[C@@H]1C[C@H]2CCCN(C2)C1` (relative stereo) [E25, (±) exo-Ethyl 1-azabicyclo[3.3.1]non-3yl carboxylate oxalate salt], the values for the IC50 in test [1] and in test [2] were 0.065 µM and 0.62 µM, respectively.

`CN(C)C(=O)O[C@@H]1C[C@H]2CCCN(C2)C1` (relative stereo) [E24, (±) exo-1-Azabicyclo[3.3.1]non-3-yl-N,N-dimetnyl-carbamate hydrochloride]: the IC50 in test [1] was determined as 0.255 µM; in test [2], 1.8 µM.

In the case of `CC(=O)O[C@H]1CN2CC[C@H]1C2` (relative stereo) [E12, (±) exo-1-Azabicyclo[2.2.1]hept-3-yl acetate oxalate salt], the IC50 came to 0.175 µM in test [1] and 46 µM in test [2].

`COC(=O)C1=CC2CCCN(C1)C2` (racemic) [E8, (±) Methyl 1-azabicyclo[3.3.1]non-3-en-3-yl carboxylate hydrochloride]: the values for the IC50 in test [1] and in test [2] were 0.118 µM and 4.1 µM, respectively.

For the compound `CCCO[C@@H]1C[C@H]2CCCN(C2)C1` (relative stereo) [E23, (±) exo-3-n-Propoxy-1-azabicyclo[3.3.1]nonane oxalate salt], the values for the IC50 in test [1] and in test [2] were 0.16 µM and 1.2 µM, respectively.

As to `CC(=O)O[C@H]1CN2CCC[C@H]1C2` (relative stereo) [E6, (±) exo-1-Azabicyclo[3.2.1]oct-6-yl acetate hydrochloride], the IC50 in test [1] turned out to be 0.082 µM; in test [2] it was 27 µM.

As a reminder, the IC50 is the concentration that gives 50% inhibition. A higher IC50 goes with a need for much substance.

The values are drawn from patent US4870081A (priority 1986, dated 1989).
